Experimental data published in ChEMBL document CHEMBL5465560, “Selectivity Literature for EUbOPEN Chemogenomic Library” (2024).
One block for each compound: values may come before it.

What was measured:
[1] = molecular target: Phosphatidylinositol 3-kinase catalytic subunit type 3 (Homo sapiens, UniProt Q8NEB9); experiment: Selectivity interaction (ActivX KiNativ screen (kinase selectivity in THP-1 cell lysates)) EUB0000639a PIK3C3; assay type: subcellular; conditions: lysate, at 1 µM
[2] = molecular target: Tyrosine-protein kinase receptor UFO (Homo sapiens) (UniProt P30530); experiment: Selectivity interaction (ProQinase) EUB0000171b AXL
[3] = molecular target: Protein arginine N-methyltransferase 8 (Homo sapiens, UniProt Q9NR22); experiment: Selectivity interaction (Methyltransferase screen (radiometric assays, panel of 8 PRMTs, 21 protein lysine methyltransferases, 3 DNA methyltransferases, and one RNA methyltransferase)) EUB0000271b PRMT8
[4] = molecular target: T1, Cytoplasmic tyrosine-protein kinase BMX (Homo sapiens) (UniProt P51813); experiment: Selectivity interaction (Kinase panel (DSF assay)) EUB0001559a BMX
T1 sequence (whole entry): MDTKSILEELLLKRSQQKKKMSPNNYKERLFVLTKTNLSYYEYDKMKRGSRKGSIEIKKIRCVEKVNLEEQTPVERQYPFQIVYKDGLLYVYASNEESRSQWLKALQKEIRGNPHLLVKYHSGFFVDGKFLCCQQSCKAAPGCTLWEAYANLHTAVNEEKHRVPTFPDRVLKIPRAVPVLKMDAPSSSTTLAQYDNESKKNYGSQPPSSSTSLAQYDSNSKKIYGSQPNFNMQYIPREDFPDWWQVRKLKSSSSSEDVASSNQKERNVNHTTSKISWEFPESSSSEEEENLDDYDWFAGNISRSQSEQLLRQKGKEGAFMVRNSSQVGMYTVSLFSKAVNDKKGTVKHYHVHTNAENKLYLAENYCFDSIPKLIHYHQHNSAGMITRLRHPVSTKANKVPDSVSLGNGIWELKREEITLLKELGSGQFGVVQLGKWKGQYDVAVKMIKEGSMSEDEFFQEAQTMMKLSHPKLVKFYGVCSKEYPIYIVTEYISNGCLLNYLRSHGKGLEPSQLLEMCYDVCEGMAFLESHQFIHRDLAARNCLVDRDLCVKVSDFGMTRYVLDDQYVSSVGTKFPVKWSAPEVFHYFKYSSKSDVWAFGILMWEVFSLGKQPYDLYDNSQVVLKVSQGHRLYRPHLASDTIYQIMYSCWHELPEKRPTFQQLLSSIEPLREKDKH

[5] = molecular target: Myosin light chain kinase, smooth muscle (Homo sapiens, UniProt Q15746); experiment: Selectivity interaction (KinomeScan (DiscoverX)) EUB0000595a MYLK; conditions: at 10 µM
[6] = molecular target: Serine/threonine-protein kinase PAK 1 (Homo sapiens) (UniProt Q13153); experiment: Selectivity interaction (KinomeScan (DiscoverX)) EUB0000045b PAK1
[7] = molecular target: Serine/threonine-protein kinase VRK2 (Homo sapiens) (UniProt Q86Y07); experiment: Selectivity interaction (KinomeScan (DiscoverX)) EUB0000045b VRK2
Peregrin (Homo sapiens) = molecular target: T2, Peregrin (Homo sapiens) (UniProt P55201); experiment: Selectivity interaction (Bromodomain panel (DSF asssay)) EUB0000270b BRPF1
T2 sequence (whole entry): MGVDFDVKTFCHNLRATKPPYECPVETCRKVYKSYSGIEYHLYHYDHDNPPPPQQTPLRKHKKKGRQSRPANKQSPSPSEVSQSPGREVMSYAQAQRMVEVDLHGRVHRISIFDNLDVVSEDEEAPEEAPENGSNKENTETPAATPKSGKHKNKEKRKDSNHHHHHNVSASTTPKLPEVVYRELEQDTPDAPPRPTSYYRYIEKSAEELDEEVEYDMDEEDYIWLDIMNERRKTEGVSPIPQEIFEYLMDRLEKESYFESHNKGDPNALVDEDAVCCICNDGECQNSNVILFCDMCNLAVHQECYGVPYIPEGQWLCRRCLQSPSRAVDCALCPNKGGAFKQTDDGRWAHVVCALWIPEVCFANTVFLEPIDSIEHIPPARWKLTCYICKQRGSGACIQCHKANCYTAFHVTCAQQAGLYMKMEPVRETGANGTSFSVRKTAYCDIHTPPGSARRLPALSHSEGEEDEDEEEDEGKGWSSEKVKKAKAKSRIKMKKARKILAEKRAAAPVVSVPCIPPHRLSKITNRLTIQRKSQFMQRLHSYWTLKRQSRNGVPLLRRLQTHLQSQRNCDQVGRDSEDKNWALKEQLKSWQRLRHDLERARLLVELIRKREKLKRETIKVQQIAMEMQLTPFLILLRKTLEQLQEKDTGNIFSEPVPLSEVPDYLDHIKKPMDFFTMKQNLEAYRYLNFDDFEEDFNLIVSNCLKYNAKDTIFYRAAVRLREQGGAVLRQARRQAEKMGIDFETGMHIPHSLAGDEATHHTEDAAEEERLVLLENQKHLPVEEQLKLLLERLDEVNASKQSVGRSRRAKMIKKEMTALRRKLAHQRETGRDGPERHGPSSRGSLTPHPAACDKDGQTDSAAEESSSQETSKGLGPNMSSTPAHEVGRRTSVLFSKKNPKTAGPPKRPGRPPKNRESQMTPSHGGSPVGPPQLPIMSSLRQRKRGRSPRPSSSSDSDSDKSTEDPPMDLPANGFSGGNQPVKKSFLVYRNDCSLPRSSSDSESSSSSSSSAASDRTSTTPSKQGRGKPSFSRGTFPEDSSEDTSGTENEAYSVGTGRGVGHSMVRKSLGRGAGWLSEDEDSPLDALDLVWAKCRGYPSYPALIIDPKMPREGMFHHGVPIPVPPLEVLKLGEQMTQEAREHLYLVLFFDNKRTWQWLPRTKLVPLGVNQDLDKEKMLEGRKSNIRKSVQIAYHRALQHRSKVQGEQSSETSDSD

[8] = molecular target: Activin receptor type-2A (Homo sapiens) (UniProt P27037); experiment: Selectivity interaction (KinomeScan (DiscoverX)) EUB0000092b ACVR2A; conditions: at 10 µM
[9] = molecular target: Phosphatidylinositol 4-phosphate 5-kinase type-1 gamma (Homo sapiens) (UniProt O60331); experiment: Selectivity interaction (KinomeScan (DiscoverX)) EUB0001619a PIP5K1C; conditions: at 1 µM
Sequence of Phosphatidylinositol 4-phosphate 5-kinase type-1 gamma (Homo sapiens) (O60331 whole entry): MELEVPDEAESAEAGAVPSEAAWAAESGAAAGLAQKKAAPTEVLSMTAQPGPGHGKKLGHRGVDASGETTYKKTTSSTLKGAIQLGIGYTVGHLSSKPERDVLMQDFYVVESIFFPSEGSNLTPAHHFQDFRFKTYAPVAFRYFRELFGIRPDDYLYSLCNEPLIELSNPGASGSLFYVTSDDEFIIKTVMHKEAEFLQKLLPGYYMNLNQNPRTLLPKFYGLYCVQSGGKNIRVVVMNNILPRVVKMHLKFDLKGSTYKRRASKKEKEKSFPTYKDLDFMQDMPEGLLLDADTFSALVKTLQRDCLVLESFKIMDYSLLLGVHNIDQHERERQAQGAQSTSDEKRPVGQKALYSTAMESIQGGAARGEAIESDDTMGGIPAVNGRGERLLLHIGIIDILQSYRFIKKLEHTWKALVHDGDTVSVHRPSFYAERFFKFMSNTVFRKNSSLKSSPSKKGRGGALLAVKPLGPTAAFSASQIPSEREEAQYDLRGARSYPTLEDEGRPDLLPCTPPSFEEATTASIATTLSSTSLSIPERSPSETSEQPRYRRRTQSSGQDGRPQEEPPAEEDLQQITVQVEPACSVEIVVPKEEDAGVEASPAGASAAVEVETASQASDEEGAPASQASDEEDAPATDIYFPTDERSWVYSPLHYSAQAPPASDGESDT

Sequence of Serine/threonine-protein kinase PAK 1 (Homo sapiens) (Q13153 whole entry): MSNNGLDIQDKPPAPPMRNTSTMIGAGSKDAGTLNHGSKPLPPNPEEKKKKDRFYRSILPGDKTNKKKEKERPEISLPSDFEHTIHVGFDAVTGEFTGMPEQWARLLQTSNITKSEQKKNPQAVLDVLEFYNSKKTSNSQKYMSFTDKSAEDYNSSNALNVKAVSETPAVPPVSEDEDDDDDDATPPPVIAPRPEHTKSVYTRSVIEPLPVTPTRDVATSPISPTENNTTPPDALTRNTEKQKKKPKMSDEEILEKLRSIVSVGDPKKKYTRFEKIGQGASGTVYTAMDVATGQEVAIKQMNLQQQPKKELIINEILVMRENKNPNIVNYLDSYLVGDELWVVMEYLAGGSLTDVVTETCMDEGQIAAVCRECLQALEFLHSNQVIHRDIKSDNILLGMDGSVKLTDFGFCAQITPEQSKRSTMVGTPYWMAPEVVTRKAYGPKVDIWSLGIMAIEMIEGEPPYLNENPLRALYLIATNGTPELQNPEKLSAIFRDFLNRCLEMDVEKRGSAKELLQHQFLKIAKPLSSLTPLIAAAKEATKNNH
Sequence of Tyrosine-protein kinase receptor UFO (Homo sapiens) (P30530 whole entry): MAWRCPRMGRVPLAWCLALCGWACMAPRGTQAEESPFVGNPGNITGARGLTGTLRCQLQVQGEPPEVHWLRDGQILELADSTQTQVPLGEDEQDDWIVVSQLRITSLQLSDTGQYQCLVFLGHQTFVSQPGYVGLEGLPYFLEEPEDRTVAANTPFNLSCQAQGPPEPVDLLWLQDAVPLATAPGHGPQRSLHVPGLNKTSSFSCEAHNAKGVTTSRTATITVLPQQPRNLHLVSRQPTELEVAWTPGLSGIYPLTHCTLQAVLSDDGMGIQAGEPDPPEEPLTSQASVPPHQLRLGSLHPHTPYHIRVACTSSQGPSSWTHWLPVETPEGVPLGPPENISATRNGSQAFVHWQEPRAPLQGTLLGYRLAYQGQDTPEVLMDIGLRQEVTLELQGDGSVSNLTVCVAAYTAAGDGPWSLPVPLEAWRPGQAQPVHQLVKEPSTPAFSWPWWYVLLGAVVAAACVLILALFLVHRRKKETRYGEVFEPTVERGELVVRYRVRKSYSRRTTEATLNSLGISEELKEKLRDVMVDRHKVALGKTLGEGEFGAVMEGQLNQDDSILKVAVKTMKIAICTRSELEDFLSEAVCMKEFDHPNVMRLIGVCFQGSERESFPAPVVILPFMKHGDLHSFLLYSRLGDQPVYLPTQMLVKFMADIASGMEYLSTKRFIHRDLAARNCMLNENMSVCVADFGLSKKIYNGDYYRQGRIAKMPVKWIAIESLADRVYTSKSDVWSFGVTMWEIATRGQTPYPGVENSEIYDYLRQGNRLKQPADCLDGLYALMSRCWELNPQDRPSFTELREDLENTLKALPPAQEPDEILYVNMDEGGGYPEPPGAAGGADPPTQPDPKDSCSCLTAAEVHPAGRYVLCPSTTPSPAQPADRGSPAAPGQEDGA
Sequence of Protein arginine N-methyltransferase 8 (Q9NR22 2-394 limits assumed): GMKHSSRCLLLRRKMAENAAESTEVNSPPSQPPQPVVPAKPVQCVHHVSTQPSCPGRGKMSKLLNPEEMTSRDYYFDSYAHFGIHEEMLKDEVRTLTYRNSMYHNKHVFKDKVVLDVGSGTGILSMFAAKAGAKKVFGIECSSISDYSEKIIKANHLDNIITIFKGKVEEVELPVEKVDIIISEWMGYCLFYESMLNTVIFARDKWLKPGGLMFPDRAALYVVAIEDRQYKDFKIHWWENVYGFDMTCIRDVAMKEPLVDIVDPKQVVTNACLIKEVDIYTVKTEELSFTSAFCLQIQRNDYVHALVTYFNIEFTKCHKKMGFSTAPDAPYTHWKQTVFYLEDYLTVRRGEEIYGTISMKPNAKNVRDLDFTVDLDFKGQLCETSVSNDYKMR
Sequence of Serine/threonine-protein kinase VRK2 (Homo sapiens) (Q86Y07 whole entry): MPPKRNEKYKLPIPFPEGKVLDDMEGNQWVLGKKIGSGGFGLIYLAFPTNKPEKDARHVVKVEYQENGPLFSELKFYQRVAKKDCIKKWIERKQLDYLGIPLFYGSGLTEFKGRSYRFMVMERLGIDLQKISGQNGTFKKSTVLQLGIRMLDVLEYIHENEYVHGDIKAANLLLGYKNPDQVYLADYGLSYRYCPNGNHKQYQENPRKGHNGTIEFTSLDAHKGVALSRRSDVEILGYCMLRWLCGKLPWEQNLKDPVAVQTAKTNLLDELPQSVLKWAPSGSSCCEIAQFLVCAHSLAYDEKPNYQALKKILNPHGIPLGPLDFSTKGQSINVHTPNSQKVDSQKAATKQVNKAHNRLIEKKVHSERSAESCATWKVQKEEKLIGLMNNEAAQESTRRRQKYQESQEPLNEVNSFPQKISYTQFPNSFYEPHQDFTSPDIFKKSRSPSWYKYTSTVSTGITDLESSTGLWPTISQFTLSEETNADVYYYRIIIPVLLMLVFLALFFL
Sequence of Phosphatidylinositol 3-kinase catalytic subunit type 3 (Q8NEB9 whole entry): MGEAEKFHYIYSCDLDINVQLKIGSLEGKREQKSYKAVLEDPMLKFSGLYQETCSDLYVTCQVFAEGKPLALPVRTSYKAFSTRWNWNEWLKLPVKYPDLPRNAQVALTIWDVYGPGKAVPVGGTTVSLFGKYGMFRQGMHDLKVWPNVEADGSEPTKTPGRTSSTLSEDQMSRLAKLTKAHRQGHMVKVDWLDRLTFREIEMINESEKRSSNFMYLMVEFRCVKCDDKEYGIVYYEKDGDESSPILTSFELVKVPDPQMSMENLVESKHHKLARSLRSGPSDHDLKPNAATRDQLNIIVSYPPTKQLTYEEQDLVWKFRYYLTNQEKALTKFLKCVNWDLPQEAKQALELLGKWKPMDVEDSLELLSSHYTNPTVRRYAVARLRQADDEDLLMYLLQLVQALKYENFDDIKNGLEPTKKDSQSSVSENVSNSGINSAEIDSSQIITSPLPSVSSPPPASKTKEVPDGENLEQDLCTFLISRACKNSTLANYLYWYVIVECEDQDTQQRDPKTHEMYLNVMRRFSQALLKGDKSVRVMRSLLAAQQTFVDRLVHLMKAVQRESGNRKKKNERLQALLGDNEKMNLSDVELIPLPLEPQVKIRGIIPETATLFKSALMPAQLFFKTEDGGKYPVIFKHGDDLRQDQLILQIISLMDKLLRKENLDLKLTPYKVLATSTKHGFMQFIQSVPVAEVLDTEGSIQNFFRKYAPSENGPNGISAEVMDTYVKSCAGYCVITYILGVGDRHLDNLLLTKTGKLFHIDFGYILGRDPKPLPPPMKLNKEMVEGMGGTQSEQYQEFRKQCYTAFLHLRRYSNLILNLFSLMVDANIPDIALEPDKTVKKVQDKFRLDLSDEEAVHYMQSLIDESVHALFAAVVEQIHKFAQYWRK
Sequence of Activin receptor type-2A (Homo sapiens) (P27037 whole entry): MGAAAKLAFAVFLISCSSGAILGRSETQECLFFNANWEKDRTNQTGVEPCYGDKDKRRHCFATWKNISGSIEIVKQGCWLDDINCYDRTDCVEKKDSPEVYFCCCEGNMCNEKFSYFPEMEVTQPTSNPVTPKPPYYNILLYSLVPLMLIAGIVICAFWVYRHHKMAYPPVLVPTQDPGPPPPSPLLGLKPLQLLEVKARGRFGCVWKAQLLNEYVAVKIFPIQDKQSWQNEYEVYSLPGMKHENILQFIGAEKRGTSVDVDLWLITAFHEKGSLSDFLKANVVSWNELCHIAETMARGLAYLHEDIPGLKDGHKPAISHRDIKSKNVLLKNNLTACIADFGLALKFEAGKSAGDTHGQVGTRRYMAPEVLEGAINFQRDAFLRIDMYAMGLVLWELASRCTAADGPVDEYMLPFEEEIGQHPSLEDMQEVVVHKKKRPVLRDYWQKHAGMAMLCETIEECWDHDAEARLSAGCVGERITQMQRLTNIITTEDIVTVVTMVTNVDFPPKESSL

- % of inhibition [1]: -13.7%
Structure (SMILES): CC[C@@H]1[C@H](F)C(=O)N[C@@H]1COc1nccc2cc(C(N)=O)c(OC)cc12 [ZIMLOVISERTIB]

- % of control ([2]; at 1 µM): 99%
- % of control ([2]; at 5 µM): 76%
Structure (SMILES): C=CC(=O)Nc1cccc(C(=O)Nc2ccc(Nc3cc(-c4[nH]c(SC)nc4C)ccn3)cc2)c1

Structure (SMILES): Cc1cc(C)cc([C@@H]2c3cc(C)ccc3NC(=O)CN2C(=O)c2ccc(Br)s2)c1
- % of activity ([3]; at 1 µM): 101%
- % of activity ([3]; at 10 µM): 96%

- dTM [4]: 0.1 K
Structure (SMILES): CN(C(=O)c1cnn2cccnc12)c1cc2c(cc1N1CCOCC1)C(=O)N(C[C@@H](F)C(C)(C)O)C2

Structure (SMILES): COCC(=O)NC/C=C/c1ccc2ncnc(Nc3ccc(Oc4ccc(C)nc4)c(C)c3)c2c1 [CP-724714]
- % of control [5]: 100%

Structure (SMILES): C=CC(=O)Nc1cc(-n2c(=O)ccc3cnc4ccc(-c5ccc(NS(C)(=O)=O)cc5)cc4c32)ccc1C
- % of control ([6]; at 1 µM): 86%
- % of control ([6]; at 10 µM): 62%
- % of control ([7]; at 1 µM): 100%
- % of control ([7]; at 10 µM): 86%

- dTM (Peregrin (Homo sapiens)): -1.98 K
Structure (SMILES): Cc1cc(CN)cc(C)c1-c1ncn(C)c1-c1cncn1C

Structure (SMILES): CCC(=O)N1CCN(c2ccc(-n3c(=O)ccc4cnc5ccc(-c6cnc7ccccc7c6)cc5c43)cc2C(F)(F)F)CC1
- % of control [8]: 47%

Structure (SMILES): N#Cc1cccc(-c2c[nH]c3ncnc(N4CCOCC4)c23)c1
- % of control [9]: 70%
